The values that follow come from ChEMBL document CHEMBL4406812, “Synthesis of quinones with highlighted biological applications: A critical update on the strategies towards bioactive compounds with emphasis on lapachones” (Eur J Med Chem, 2019).

pIC50: −log10 of the molar value. ≈ marks a conversion by molar mass, not a printed value.

The test system of series [1] is HepG2. The series can be described thus: Cytotoxicity against human HepG2 cells assessed as reduction in cell viability after 48 hrs by MTT assay. It is filed as functional, cell-based. Conditions: HepG2, 48 h.
For series [2], the system named is L02. The series can be described thus: Cytotoxicity against human LO2 cells assessed as reduction in cell viability after 48 hrs by MTT assay. Conditions: L02, 48 h. The series is classed as functional, cell-based.
Series [3] has as its system Trypanosoma cruzi. The series can be described thus: Anti-parasitic activity against Trypanosoma cruzi. The series is classed as functional, organism-based.
For series [4], the system named is Mycobacterium tuberculosis. Description: Antimycobacterial activity against Mycobacterium tuberculosis H37Rv. The series is classed as functional.
Series [5] deals with Trypanosoma cruzi. The series can be described thus: Anti-parasitic activity against amastigote form of Trypanosoma cruzi after 24 hrs. It is filed as functional, organism-based.
A short description of series [6]: Selectivity index, ratio of CC50 for monkey LLC-MK2 cells to IC50 for Trypanosoma cruzi Y strain bloodstream trypomastigotes. The note with it: read-out: Ratio IC50. It is filed as toxicity.
In series [7] the test system is Trypanosoma cruzi. Description: Trypanocidal activity against Trypanosoma cruzi Y strain bloodstream trypomastigotes isolated from infected Swiss mouse infected with monkey LLC-MK2 cells after 5 days by fluorescence spectrophotometric analysis. The series is classed as functional, organism-based. The note with it: LLC-MK2, 120 h.
Series [8] has as its system Trypanosoma cruzi. The series can be described thus: Trypanocidal activity against Trypanosoma cruzi Y strain bloodstream trypomastigotes after 24 hrs. The series is classed as functional, organism-based.
Series [9] deals with HL-60. Description: Anticancer activity against human HL60 cells. The series is classed as functional, cell-based.
Series [10] has as its system Trypanosoma cruzi. The series can be described thus: Anti-parasitic activity against trypomastigotes form of Trypanosoma cruzi after 24 hrs. The series is classed as functional, organism-based.
Series [11] deals with HL-60. Description: Cytotoxicity against human HL60 cells assessed as reduction in cell viability after 22 hrs by MTS assay. It is filed as functional, cell-based. Conditions: HL-60, 22 h.
For series [12], the system named is SF-295. The series can be described thus: Cytotoxicity against human SF295 cells assessed as reduction in cell viability after 72 hrs by MTT assay. The series is classed as functional, cell-based. Conditions: SF-295, 72 h.
For series [13], the system named is HL-60. Description: Cytotoxicity against human HL60 cells assessed as reduction in cell viability after 72 hrs by MTT assay. It is filed as functional, cell-based. The note with it: HL-60, 72 h.
Series [14] has as its system HCT-8. Description: Cytotoxicity against human HCT8 cells assessed as reduction in cell viability after 72 hrs by MTT assay. It is filed as functional, cell-based. Conditions: HCT-8, 72 h.
The subject of series [15] is MDA-MB-435. The series can be described thus: Cytotoxicity against human MDA-MB-435 cells assessed as reduction in cell viability after 72 hrs by MTT assay. The series is classed as functional, cell-based. Conditions: MDA-MB-435, 72 h.
Series [16] concerns SF-295. The series can be described thus: Anticancer activity against human SF295 cells by MTT assay. It is filed as functional, cell-based.
Series [17] deals with OVCAR-8. The series can be described thus: Anticancer activity against human OVCAR8 cells by MTT assay. The series is classed as functional, cell-based.
Series [18] has as its system HCT-116. The series can be described thus: Anticancer activity against human HCT116 cells by MTT assay. It is filed as functional, cell-based.
Series [19] deals with HL-60. Description: Anticancer activity against human HL60 cells by MTT assay. It is filed as functional, cell-based.
The subject of series [20] is MCF7. The series can be described thus: Anticancer activity against human MCF7 cells. It is filed as functional, cell-based.
Series [21] has as its system SW-620. The series can be described thus: Cytotoxicity against human SW620 cells assessed as reduction in cell viability after 72 hrs by MTT assay. It is filed as functional, cell-based. The note with it: SW-620, 72 h.
Series [22] relates to Hs-578T. Description: Cytotoxicity against human Hs 578T cells assessed as reduction in cell viability after 72 hrs by MTT assay. The series is classed as functional, cell-based.
The subject of series [23] is NCI-H358. Description: Cytotoxicity against human NCI-H358 cells assessed as reduction in cell viability after 72 hrs by MTT assay. The series is classed as functional, cell-based. The note with it: NCI-H358, 72 h.
The subject of series [24] is Hs-578T. Description: Cytotoxicity against human Hs578T cells assessed as reduction in cell viability after 72 hrs by MTT assay. The series is classed as functional, cell-based.

For the compound `O=C1C(=O)c2ccccc2C2=C1C1(C(=O)Nc3ccc(Cl)cc31)N1NN=NC1=N2` (stereo not given), the pIC50 in series [1] and in [2] was 4.44 to 5.54 throughout.
For the compound `O=C1C(Br)=C(Br)C(=O)c2c(I)cccc21`, the pIC50 in [3] was 5.85.
For the compound `CC1(C)CCC2=C(O1)c1ccccc1C(=O)C2=O` [LAPACHONE], the lowest concentration to inhibit growth in series [4] (MIC) was 100 µg/mL (≈ 413 µM).
For `CC1(C)Cc2c(c3ccccc3c3nc4c5cccnc5c5ncccc5c4nc23)O1`, the pIC50 in series [5] is 4.64.
Regarding `CCCCCCCCC1CC2=C(O1)c1ccccc1C(=O)C2=O` (stereo not given), the selectivity ratio in series [6] was 106. Also, the pIC50 in series [7] is 4.68.
In the case of `COc1ccc(I)c2c1C(=O)C=C(C)C2=O`, in series [8], the pIC50 is 5.12.
Consider `COc1ccc(NC2CC(C)(C)OC3=C2C(=O)c2ccccc2C3=O)cc1` (stereo not given), for which the pIC50 in series [9] is 7.15.
Regarding `O=C1C(=O)c2ccccc2C2=C1C1(C(=O)Nc3ccccc31)N1NN=NC1=N2` (stereo not given), the pIC50 in [1] and in [2] was 4.44 to 5.54 in each case.
`O=C1C(=O)c2ccccc2C2=C1C1(C(=O)Nc3cc(Cl)ccc31)N1NN=NC1=N2` (stereo not given): the pIC50 in series [1] and in series [2] was 4.44 to 5.54 in each case.
In series [10], `O=C1C=CC(=O)c2c(Sc3ccccc3)cccc21` gave a pIC50 of 4.91.
Turning to `O=C1C(=O)c2ccccc2C2=C1C1(C(=O)Nc3ccc(F)cc31)N1NN=NC1=N2` (stereo not given), the pIC50 in [1] and in [2] was 4.44 to 5.54 in each case.
For the compound `O=C1C2=C(S[C@@H]3OC[C@@H](O)[C@H](O)[C@H]3O2)C(=O)c2ccccc21`, the pIC50 in series [11] is 6.00.
Take `CC1(C)Oc2c(c3nc4c5cccnc5c5ncccc5c4nc3c3ccccc23)CC1I` (stereo not given): the pIC50 in series [5] is 5.31.
As for `O=C1C(=O)c2ccccc2C2=C1C1(C(=O)N(c3ccccc3)c3ccccc31)N1NN=NC1=N2` (stereo not given), the pIC50 in series [1] and in series [2] was 4.44 to 5.54 each time.
For the compound `O=C1C(=O)c2c(O)cccc2C2=C1CCC(c1ccccc1)O2` (stereo not given), the pIC50 in series [12], in [13], in [14] and in [15] was 5.89 in each case.
With `CCCCCCCCCCC1CC2=C(O1)c1ccccc1C(=O)C2=O` (stereo not given), the selectivity ratio in series [6] turned out to be 36.3. Moreover, the pIC50 in [7] is 4.33.
In the case of `CC1(C)O[C@@H]2O[C@@H](COC3C4=C(OC3(C)C)c3ccccc3C(=O)C4=O)[C@H]3OC(C)(C)O[C@H]3[C@@H]2O1` (stereo not given in full), the pIC50 is 6.64 in series [16], 6.15 in series [17], 6.46 in series [18] and 6.64 in series [19].
In the case of `CC(=O)OCC1C2=C(OC1(C)C)c1ccccc1C(=O)C2=O` (stereo not given), the pIC50 in [20] was 6.22.
In the case of `CN1C(=O)C2(C3=C(N=C4N=NNN42)c2ccccc2C(=O)C3=O)c2cccc(F)c21` (stereo not given), the pIC50 in series [1] and in series [2] was 4.44 to 5.54 each time.
On to `COc1cccc2c1C(=O)c1c(O)c3c(c(O)c1C2=O)C[C@@](O)(C(=O)CO)C[C@@H]3O[C@H]1C[C@H](N)[C@H](O)[C@H](C)O1` [DOXORUBICIN], for which the pIC50 in [12] was 6.06 to 7.52; in series [21], 6.11; in [22] it was 6.08; in series [14], 7.52; in series [23], 6.05; in series [24], 6.12. For the same compound, the figures for the negative-log IC50 (pIC50) in [20] and in series [15] were 6.44 and 6.06 to 7.52, respectively.
As for `O=C1C(=O)c2ccccc2C2=C1C1(C(=O)Nc3c(C(F)(F)F)cccc31)N1NN=NC1=N2` (stereo not given), the pIC50 in series [1] and in [2] was 4.44 to 5.54 each time.
As to `O=C1C=CC(=O)c2c(SCc3ccccc3)cccc21`, the pIC50 in [10] is 4.84.
Take `O=C1C(=O)c2ccccc2C2=C1C1(C(=O)Nc3c(Cl)cccc31)N1NN=NC1=N2` (stereo not given): the pIC50 in series [1] and in series [2] was 4.44 to 5.54 in each case.
Take `O=C(Cn1ccnc1[N+](=O)[O-])NCc1ccccc1` [BENZNIDAZOLE]: the pIC50 in [8] was 5.01; in [5] it was 5.48; in series [7], 4.70. Also, the selectivity ratio in series [6] was 16.8.
